According to PubChem BioAssay (NCI):
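GI50 is the concentration that inhibits growth by half. TGI marks complete inhibition of growth.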

Tests used:
Assay in all cases: NCI tumour cell line growth inhibition, 384-well format
DU-145 prostate = tested on: DU-145 prostate
OVCAR-8 ovarian = tested on: OVCAR-8 ovarian
HOP-62 NSCLC = tested on: HOP-62 NSCLC
NCI/ADR-RES ovarian = tested on: NCI/ADR-RES ovarian
HL-60(TB) leukemia = tested on: HL-60(TB) leukemia
SN12C renal = tested on: SN12C renal
SF-295 CNS = tested on: SF-295 CNS
LOX IMVI melanoma = tested on: LOX IMVI melanoma
CAKI-1 renal = tested on: CAKI-1 renal
OVCAR-5 ovarian = tested on: OVCAR-5 ovarian
RXF 393 renal = tested on: RXF 393 renal
SNB-75 CNS = tested on: SNB-75 CNS
COLO 205 colon = tested on: COLO 205 colon
SF-539 CNS = tested on: SF-539 CNS
SR leukemia = tested on: SR leukemia
UACC-257 melanoma = tested on: UACC-257 melanoma
ACHN renal = tested on: ACHN renal
HCC-2998 colon = tested on: HCC-2998 colon
KM12 colon = tested on: KM12 colon
M14 melanoma = tested on: M14 melanoma
TK-10 renal = tested on: TK-10 renal
MCF7 breast = tested on: MCF7 breast
OVCAR-3 ovarian = tested on: OVCAR-3 ovarian
SF-268 CNS = tested on: SF-268 CNS
NCI-H522 lung = tested on: NCI-H522 lung
UO-31 renal = tested on: UO-31 renal
HOP-92 NSCLC = tested on: HOP-92 NSCLC
MDA-MB-468 breast = tested on: MDA-MB-468 breast
A498 renal = tested on: A498 renal
K-562 leukemia = tested on: K-562 leukemia
SK-MEL-5 melanoma = tested on: SK-MEL-5 melanoma
PC-3 prostate = tested on: PC-3 prostate
NCI-H460 NSCLC = tested on: NCI-H460 NSCLC
HCT-15 colon = tested on: HCT-15 colon
NCI-H322M lung = tested on: NCI-H322M lung
MOLT-4 leukemia = tested on: MOLT-4 leukemia
RPMI-8226 leukemia = tested on: RPMI-8226 leukemia
MDA-MB-435 melanoma = tested on: MDA-MB-435 melanoma
NCI-H226 lung = tested on: NCI-H226 lung
MALME-3M melanoma = tested on: MALME-3M melanoma
EKVX NSCLC = tested on: EKVX NSCLC
786-0 renal = tested on: 786-0 renal
NCI-H23 lung = tested on: NCI-H23 lung
IGROV1 ovarian = tested on: IGROV1 ovarian
HS 578T breast = tested on: HS 578T breast
SW-620 colon = tested on: SW-620 colon
UACC-62 melanoma = tested on: UACC-62 melanoma
SNB-19 CNS = tested on: SNB-19 CNS
CCRF-CEM leukemia = tested on: CCRF-CEM leukemia
MDA-MB-231 breast = tested on: MDA-MB-231 breast
OVCAR-4 ovarian = tested on: OVCAR-4 ovarian
HT29 colon = tested on: HT29 colon
A549 NSCLC = tested on: A549 NSCLC
SK-OV-3 ovarian = tested on: SK-OV-3 ovarian
SK-MEL-28 melanoma = tested on: SK-MEL-28 melanoma
BT-549 breast = tested on: BT-549 breast
T-47D breast = tested on: T-47D breast
HCT-116 colon = tested on: HCT-116 colon

For `CCCCCCCCCCCCCCCCCCOP(=O)([O-])OC1CC[N+](C)(C)CC1`, the GI50 (DU-145 prostate) was 36.4 µM, the TGI (DU-145 prostate) was > 100 µM and the GI50 (OVCAR-8 ovarian) was 39.9 µM. The TGI (OVCAR-8 ovarian) was > 100 µM, the GI50 (HOP-62 NSCLC) was 11.4 µM and the TGI (HOP-62 NSCLC) was 28.4 µM. For the same compound, the GI50 (NCI/ADR-RES ovarian) was > 100 µM, the TGI (NCI/ADR-RES ovarian) was > 100 µM and the GI50 (HL-60(TB) leukemia) was 1.45 µM. The TGI (HL-60(TB) leukemia) was 2.85 µM, the GI50 (SN12C renal) was 25.5 µM and the TGI (SN12C renal) was 98 µM. It also gave a GI50 (SF-295 CNS) of 11.7 µM, a TGI (SF-295 CNS) of 61.9 µM and a GI50 (LOX IMVI melanoma) of 16.9 µM. For the same compound, the TGI (LOX IMVI melanoma) was 54 µM, the GI50 (CAKI-1 renal) was 10.8 µM and the TGI (CAKI-1 renal) was 24.5 µM. It also gave a GI50 (OVCAR-5 ovarian) of 6.35 µM, a TGI (OVCAR-5 ovarian) of 36.4 µM and a GI50 (RXF 393 renal) of 2.87 µM. The TGI (RXF 393 renal) was 18.1 µM, the GI50 (SNB-75 CNS) was 68.8 µM and the TGI (SNB-75 CNS) was > 100 µM. The GI50 (COLO 205 colon) was 1.29 µM, the TGI (COLO 205 colon) was 16 µM and the GI50 (SF-539 CNS) was > 100 µM. For the same compound, the TGI (SF-539 CNS) was > 100 µM, the GI50 (SR leukemia) was 0.406 µM and the TGI (SR leukemia) was 2 µM. For the same compound, the GI50 (UACC-257 melanoma) was > 100 µM, the TGI (UACC-257 melanoma) was > 100 µM and the GI50 (ACHN renal) was 15.9 µM. It also gave a TGI (ACHN renal) of 30.6 µM, a GI50 (HCC-2998 colon) of 4.59 µM and a TGI (HCC-2998 colon) of 26 µM. For the same compound, the GI50 (KM12 colon) was 0.757 µM, the TGI (KM12 colon) was 10.1 µM and the GI50 (M14 melanoma) was 21.1 µM. It also gave a TGI (M14 melanoma) of 62.8 µM, a GI50 (TK-10 renal) of 1.48 µM and a TGI (TK-10 renal) of 3 µM. The GI50 (MCF7 breast) was 57.5 µM, the TGI (MCF7 breast) was > 100 µM and the GI50 (OVCAR-3 ovarian) was 64 µM. The TGI (OVCAR-3 ovarian) was > 100 µM, the GI50 (SF-268 CNS) was 22.2 µM and the TGI (SF-268 CNS) was 85.7 µM. For the same compound, the GI50 (NCI-H522 lung) was 8.69 µM, the TGI (NCI-H522 lung) was 23.1 µM and the GI50 (UO-31 renal) was 45.9 µM. For the same compound, the TGI (UO-31 renal) was > 100 µM, the GI50 (HOP-92 NSCLC) was 11.6 µM and the TGI (HOP-92 NSCLC) was 24.6 µM. For the same compound, the GI50 (MDA-MB-468 breast) was 23.2 µM, the TGI (MDA-MB-468 breast) was 49 µM and the GI50 (A498 renal) was 17.2 µM. The TGI (A498 renal) was 92.2 µM, the GI50 (K-562 leukemia) was 61.5 µM and the TGI (K-562 leukemia) was > 100 µM. The GI50 (SK-MEL-5 melanoma) was > 100 µM, the TGI (SK-MEL-5 melanoma) was > 100 µM and the GI50 (PC-3 prostate) was 0.362 µM. The TGI (PC-3 prostate) was 1.4 µM, the GI50 (NCI-H460 NSCLC) was 1.47 µM and the TGI (NCI-H460 NSCLC) was 14.7 µM. The GI50 (HCT-15 colon) was 3.21 µM, the TGI (HCT-15 colon) was 11 µM and the GI50 (NCI-H322M lung) was 60.9 µM. The TGI (NCI-H322M lung) was > 100 µM, the GI50 (MOLT-4 leukemia) was 7.26 µM and the TGI (MOLT-4 leukemia) was 19.9 µM. For the same compound, the GI50 (RPMI-8226 leukemia) was 0.32 µM, the TGI (RPMI-8226 leukemia) was 0.819 µM and the GI50 (MDA-MB-435 melanoma) was > 100 µM. For the same compound, the TGI (MDA-MB-435 melanoma) was > 100 µM, the GI50 (NCI-H226 lung) was 50 µM and the TGI (NCI-H226 lung) was > 100 µM. The GI50 (MALME-3M melanoma) was > 100 µM, the TGI (MALME-3M melanoma) was > 100 µM and the GI50 (EKVX NSCLC) was 32.5 µM. For the same compound, the TGI (EKVX NSCLC) was > 100 µM, the GI50 ([…]-0 renal) was 7.36 µM and the TGI (786-0 renal) was 31.3 µM. For the same compound, the GI50 (NCI-H23 lung) was > 100 µM, the TGI (NCI-H23 lung) was > 100 µM and the GI50 (IGROV1 ovarian) was 1.67 µM. The TGI (IGROV1 ovarian) was 3.99 µM, the GI50 (HS 578T breast) was 32.8 µM and the TGI (HS 578T breast) was > 100 µM. For the same compound, the GI50 (SW-620 colon) was 10 µM, the TGI (SW-620 colon) was > 100 µM and the GI50 (UACC-62 melanoma) was 23.2 µM. For the same compound, the TGI (UACC-62 melanoma) was > 100 µM, the GI50 (SNB-19 CNS) was 21.3 µM and the TGI (SNB-19 CNS) was 77 µM. It also gave a GI50 (CCRF-CEM leukemia) of 1.8 µM, a TGI (CCRF-CEM leukemia) of 4.79 µM and a GI50 (MDA-MB-231 breast) of 15.9 µM. It also gave a TGI (MDA-MB-231 breast) of 52.7 µM, a GI50 (OVCAR-4 ovarian) of 25.7 µM and a TGI (OVCAR-4 ovarian) of 76.6 µM. It also gave a GI50 (HT29 colon) of 2.9 µM, a TGI (HT29 colon) of 12.9 µM and a GI50 (A549 NSCLC) of 14.4 µM. The TGI (A549 NSCLC) was 28 µM, the GI50 (SK-OV-3 ovarian) was > 100 µM and the TGI (SK-OV-3 ovarian) was > 100 µM. For the same compound, the GI50 (SK-MEL-28 melanoma) was > 100 µM, the TGI (SK-MEL-28 melanoma) was > 100 µM and the GI50 (BT-549 breast) was 11.5 µM. For the same compound, the TGI (BT-549 breast) was 24.3 µM, the GI50 (T-47D breast) was 29.6 µM and the TGI (T-47D breast) was > 100 µM.

`CCc1c2c(nc3ccc(O)cc13)-c1cc3c(c(=O)n1C2)COC(=O)[C@]3(O)CC` gave a TGI (OVCAR-8 ovarian) of 0.0478 µM, a TGI (NCI/ADR-RES ovarian) of 0.0303 µM and a TGI (LOX IMVI melanoma) of 0.0238 µM. The TGI (CAKI-1 renal) was 0.0926 µM, the GI50 (OVCAR-5 ovarian) was 0.0398 µM and the TGI (OVCAR-5 ovarian) was 0.249 µM. The TGI (RXF 393 renal) was 0.0264 µM, the TGI (SNB-75 CNS) was 0.0141 µM and the TGI (COLO 205 colon) was 1.06 µM. For the same compound, the GI50 (UACC-257 melanoma) was 0.0118 µM, the TGI (UACC-257 melanoma) was 0.285 µM and the TGI (HCC-2998 colon) was 0.0754 µM. For the same compound, the GI50 (KM12 colon) was 0.0205 µM, the TGI (KM12 colon) was 0.153 µM and the GI50 (TK-10 renal) was 0.0351 µM. For the same compound, the TGI (TK-10 renal) was 0.919 µM, the TGI (OVCAR-3 ovarian) was 0.0364 µM and the TGI (NCI-H522 lung) was 0.0316 µM. It also gave a TGI (HCT-116 colon) of 0.114 µM, a TGI (UO-31 renal) of 0.0495 µM and a TGI (HOP-92 NSCLC) of 0.0644 µM. The TGI (A498 renal) was 0.129 µM, the TGI (K-562 leukemia) was 0.292 µM and the TGI (SK-MEL-5 melanoma) was 0.0169 µM. For the same compound, the GI50 (PC-3 prostate) was 0.115 µM, the TGI (PC-3 prostate) was 4.66 µM and the TGI (NCI-H460 NSCLC) was 0.0156 µM. For the same compound, the TGI (HCT-15 colon) was 0.137 µM, the GI50 (NCI-H322M lung) was 0.0223 µM and the TGI (NCI-H322M lung) was 0.12 µM. The TGI (RPMI-8226 leukemia) was 0.0616 µM, the GI50 (MDA-MB-435 melanoma) was 0.0331 µM and the TGI (MDA-MB-435 melanoma) was 0.266 µM. It also gave a TGI (NCI-H226 lung) of 0.135 µM, a GI50 (MALME-3M melanoma) of 0.0131 µM and a TGI (MALME-3M melanoma) of 0.297 µM. It also gave a GI50 (EKVX NSCLC) of 0.0897 µM, a TGI (EKVX NSCLC) of 2.63 µM and a TGI (786-0 renal) of 0.0125 µM. It also gave a TGI (NCI-H23 lung) of 0.0133 µM, a GI50 (IGROV1 ovarian) of 0.0247 µM and a TGI (IGROV1 ovarian) of 1.05 µM. The GI50 (HS 578T breast) was 0.14 µM, the TGI (HS 578T breast) was 1.93 µM and the TGI (SW-620 colon) was 0.239 µM. The TGI (SNB-19 CNS) was 0.0163 µM, the GI50 (MDA-MB-231 breast) was 0.128 µM and the TGI (MDA-MB-231 breast) was 3.8 µM. It also gave a GI50 (OVCAR-4 ovarian) of 0.0478 µM, a TGI (OVCAR-4 ovarian) of 0.224 µM and a GI50 (A549 NSCLC) of 0.0344 µM. For the same compound, the TGI (A549 NSCLC) was 1.06 µM, the TGI (SK-OV-3 ovarian) was 0.0175 µM and the TGI (SK-MEL-28 melanoma) was 0.156 µM. For the same compound, the TGI (BT-549 breast) was 0.0264 µM and the TGI (T-47D breast) was 0.0155 µM.
